Publication PMC8767159, “Multiparameter Optimization of Trypanocidal Cruzain Inhibitors With In Vivo Activity and Favorable Pharmacokinetics” (Frontiers in Pharmacology, 2022)
Like-named read-outs stand apart in the source and are kept apart here.

Legend:
[1] = Parallel artificial membrane permeability assay (PAMPA); assay type: in vitro ADME; set-up: PAMPA: unit: 1e-6 cm/s; conditions: for PAMPA: unit not given
Description: The permeability of the compounds was assessed using the PAMPA method ([Yu et al., 2015]). The test compounds were dissolved in DMSO to a concentration of 5 mM. Next, the compounds were diluted in a stock plate in saline phosphate buffer (PBS), pH 6.5, containing 1% DMSO to a concentration of 1 µM. Then, 300 µl of each test compound was added to the donor plate. Afterward, 200 µl of PBS buffer, pH 7.4, was added to the acceptor plate. The donor plate was attached to the acceptor plate. The assembled acceptor-donor plate was then incubated at 37°C for 5 h under gentle agitation. To analyze the concentration of the compounds by mass spectrometry, two analysis plates (one for the donor and another for the acceptor plate) containing 300 μl of MEOH:ACN 50:50 were prepared. To the donor analysis plate, 90 µl of PBS, pH 6.5, and 10 µl of the content of the donor plate were added. For the acceptor analysis plate, 100 µl of the content of the acceptor plate was added. To monitor any potential decomposition/intrinsic instability of the test compounds in solution, samples from the stock plate were subjected to LC-MS/MS. The compounds that presented Pe ≥ 1.5 × 10^−6 cm/s were classified as permeable, while compounds that presented Pe < 1.5 × 10^−6 cm/s were considered poorly permeable or nonpermeable.

[2] = Fraction unbound by equilibrium dialysis; assay type: in vitro ADME; conditions: pH 7.4
Procedure, shortened: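 Test compounds at 1, 2, 20, 200, 2,000 and 5,000 nM in plasma, microsome suspension or buffer with 10% FCS, dialysed against 50 mM potassium phosphate pH 7.4 across a 12–14 kDa membrane, 37°C, 150 rpm, 4 h. Both sides quantified by LC-MS/MS against a standard curve; triplicates.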

[3] = biological target: T1, cruzain (Trypanosoma cruzi, UniProt P25779); assay: Cruzain enzyme inhibition assay (cleavage of fluorogenic substrate Z-FR-AMC); assay type: biochemical; conditions: for % cruzain inhibition, 0% Triton / % cruzain inhibition, 0.01% Triton / % cruzain inhibition, 0.1% Triton: Table S1; for % cruzain inhibition, 0% Triton: 0% Triton X-100; for % cruzain inhibition, 0.01% Triton: 0.01% Triton X-100; for % cruzain inhibition, 0.1% Triton: 0.1% Triton X-100; for inhibition at 100 µM: compound 100 µM, mean of three measures; for Mechanism of cruzain inhibition (Lineweaver-Burk plots): eight substrate and four inhibitor concentrations
T1 construct: made in house; host or cells: Escherichia coli (strain M15)
Procedure, shortened: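 Recombinant C-terminally truncated cruzain, activated from pro-enzyme, assayed in 0.1 M sodium acetate pH 5.5 with 5 mM DTT and 0.01% Triton X-100 (also run at 0 and 0.1%) at 30°C. Z-FR-AMC cleavage followed 5 min (ex 355/em 460 nm); IC50 from initial rates versus DMSO, ≥6 concentrations in triplicate; single-dose at 100 μM.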

[4] = PAMPA, Table 3, donor pH 6.5, acceptor pH 7.4, 5 h
[5] = 1.5 nM cruzain, 5.0 µM Z-FR-AMC, mean ± SD of 2–3 assays, read-out: IC50 (µM) against cruzain
[6] = Table S2, substrate 2.5 µM, read-out: IC50 (µM) cruzain at [S] 2.5 µM
[7] = Table S2, substrate 5 µM, read-out: IC50 (µM) cruzain at [S] 5 µM
[8] = Table S2, substrate 10 µM, read-out: IC50 (µM) cruzain at [S] 10 µM
[9] = Table S2, substrate 15 µM, read-out: IC50 (µM) cruzain at [S] 15 µM
[10] = Table S2, substrate 20 µM, read-out: IC50 (µM) cruzain at [S] 20 µM
[11] = Table S2, substrate 40 µM, read-out: IC50 (µM) cruzain at [S] 40 µM

T1 sequence (P25779 123-337 limits assumed): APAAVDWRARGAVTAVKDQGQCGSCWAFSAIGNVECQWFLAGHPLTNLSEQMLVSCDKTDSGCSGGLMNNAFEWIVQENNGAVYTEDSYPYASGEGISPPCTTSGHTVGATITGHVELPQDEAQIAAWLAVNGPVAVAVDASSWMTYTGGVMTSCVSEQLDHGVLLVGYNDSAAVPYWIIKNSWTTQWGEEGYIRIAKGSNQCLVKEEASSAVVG

Papp at 5 h, 1 µM ([1]; Table S5, unit inferred)	SMILES	Papp at 5 h, 1 µM [1, 4]	PAMPA ([1]; Table S5)	fraction unbound at 4 h, 1 µM ([2]; Table S5, fraction unbound)	IC50 [3, 5]	% cruzain inhibition, 0% Triton [3]	% cruzain inhibition, 0.01% Triton [3]	% cruzain inhibition, 0.1% Triton [3]	IC50 [3, 6]	IC50 [3, 7]	IC50 [3, 8]	IC50 [3, 9]	IC50 [3, 10]	IC50 [3, 11]	inhibition at 100 µM [3]	Mechanism of cruzain inhibition (Lineweaver-Burk plots) [3]	fraction unbound at 4 h, 1 µM ([2]; Table S6, fraction unbound used to correct plasma clearance)
–	O=C(COc1ccccc1)NCCc1nc2ccccc2n1CCOc1ccccc1 [Compound 20]	4.3 ×10⁻⁶ cm/s	4.30	0.41	1.04 ± 0.7 µM	95.2 ± 0.6%	95.9 ± 1.7%	96.0 ± 1.1%	0.5 ± 1.3 µM	0.4 ± 1.2 µM	1 ± 1.5 µM	0.8 ± 1.7 µM	0.3 µM	0.5 ± 1.2 µM	92%	noncompetitive	–
3.98 ×10⁻⁶ cm/s	O=C(COc1ccccc1)NCCc1nc2ccccc2n1CCOCc1ccccc1 [Compound 21]	–	–	0.47	1.69 ± 0.4 µM	80.3 ± 1.4%	85.5 ± 2.3%	84.6 ± 1.3%	–	–	–	–	–	–	76%	–	–
0.04 ×10⁻⁶ cm/s	Cc1ccccc1OCC(=O)NCCc1nc2ccccc2n1CCOc1ccccc1Br [Compound 22]	–	–	0.03	–	–	–	–	–	–	–	–	–	–	36%	–	–
0.08 ×10⁻⁶ cm/s	O=C(COc1ccccc1Br)NCCc1nc2ccccc2n1CCOc1ccccc1Br [Compound 23]	–	–	0.04	–	52.1 ± 1.3%	53.2 ± 1.9%	55.5 ± 5.2%	–	–	–	–	–	–	49%	–	–
–	O=C(COc1ccccc1)NCCc1nc2ccccc2n1CCCOc1ccccc1 [Compound 24]	2.29 ×10⁻⁶ cm/s	2.29	0.27	2.2 ± 1.2 µM	87.9 ± 0.7%	82.6 ± 0.3%	82.9 ± 3.5%	1.7 ± 1.3 µM	2.2 ± 1.3 µM	2.2 ± 1.1 µM	1.9 ± 1.8 µM	2.5 ± 1.2 µM	2.1 ± 0.9 µM	81%	noncompetitive	–
–	O=C(COc1ccccc1)NCCc1nc2ccccc2n1Cc1ccccc1 [Compound 26]	8.72 ×10⁻⁶ cm/s	8.72	0.61	1.1 ± 0.2 µM	–	–	–	1.6 ± 0.1 µM	1.8 ± 0.1 µM	1.9 ± 0.2 µM	1.4 ± 0.5 µM	2.4 ± 0.9 µM	1.2 ± 0.5 µM	77%	noncompetitive	–
–	C=CCCn1c(CCNC(=O)COc2ccccc2)nc2ccccc21 [Compound 27]	9.06 ×10⁻⁶ cm/s	9.06	0.86	13.7 ± 1.4 µM	–	–	–	12.4 ± 2.2 µM	7.5 ± 1.2 µM	14.7 ± 1.8 µM	11.2 ± 1.5 µM	10.2 ± 1.5 µM	8.9 ± 3.1 µM	79%	noncompetitive	–
–	NC(=O)Cn1c(CCNC(=O)COc2ccccc2)nc2ccccc21 [Compound 28]	0.71 ×10⁻⁶ cm/s	0.71	0.98	12.1 ± 2.4 µM	–	–	–	–	–	–	–	–	–	81%	–	0.18
9.35 ×10⁻⁶ cm/s	COCCn1c(CCNC(=O)COc2ccccc2)nc2ccccc21 [Compound 29]	–	–	1	8.8 ± 1.8 µM	–	–	–	–	–	–	–	–	–	79%	–	–
17.8 ×10⁻⁶ cm/s	O=C(COc1ccccc1)NCCc1nc2ccccc2n1-c1ccccc1 [Compound 30]	–	–	0.63	8.6 ± 2.6 µM	–	–	–	–	–	–	–	–	–	79%	–	–

SMILES	Papp at 5 h, 1 µM ([1]; Table S5, unit inferred)	Papp at 5 h, 1 µM [1, 4]	PAMPA ([1]; Table S5)	fraction unbound at 4 h, 1 µM ([2]; Table S5, fraction unbound)	IC50 [3, 5]	% cruzain inhibition, 0% Triton [3]	% cruzain inhibition, 0.01% Triton [3]	% cruzain inhibition, 0.1% Triton [3]	IC50 [3, 6]	IC50 [3, 7]	IC50 [3, 8]	IC50 [3, 9]	IC50 [3, 10]	IC50 [3, 11]	inhibition at 100 µM [3]	Mechanism of cruzain inhibition (Lineweaver-Burk plots) [3]	fraction unbound at 4 h, 1 µM ([2]; Table S6, fraction unbound used to correct plasma clearance)
Cn1c(CCNC(=O)COc2ccccc2)nc2ccccc21 [Compound 25]	6.55 ×10⁻⁶ cm/s	1.46 ×10⁻⁶ cm/s	–	0.99	8.6 ± 1.7 µM	–	–	–	–	–	–	–	–	–	87%	competitive	–
